For orientation: IC50 means the concentration that inhibits the measured activity by half. Usually EC50 stands for the midpoint of the concentration-response curve. The term AC50 denotes the concentration giving half of the maximal activity seen.

Calls of active or inactive are those of the source.

The target in test [1] is T1, Aminopeptidase N (Plasmodium falciparum FcB1/Columbia, UniProt O96935).
T1 sequence (O96935 whole entry): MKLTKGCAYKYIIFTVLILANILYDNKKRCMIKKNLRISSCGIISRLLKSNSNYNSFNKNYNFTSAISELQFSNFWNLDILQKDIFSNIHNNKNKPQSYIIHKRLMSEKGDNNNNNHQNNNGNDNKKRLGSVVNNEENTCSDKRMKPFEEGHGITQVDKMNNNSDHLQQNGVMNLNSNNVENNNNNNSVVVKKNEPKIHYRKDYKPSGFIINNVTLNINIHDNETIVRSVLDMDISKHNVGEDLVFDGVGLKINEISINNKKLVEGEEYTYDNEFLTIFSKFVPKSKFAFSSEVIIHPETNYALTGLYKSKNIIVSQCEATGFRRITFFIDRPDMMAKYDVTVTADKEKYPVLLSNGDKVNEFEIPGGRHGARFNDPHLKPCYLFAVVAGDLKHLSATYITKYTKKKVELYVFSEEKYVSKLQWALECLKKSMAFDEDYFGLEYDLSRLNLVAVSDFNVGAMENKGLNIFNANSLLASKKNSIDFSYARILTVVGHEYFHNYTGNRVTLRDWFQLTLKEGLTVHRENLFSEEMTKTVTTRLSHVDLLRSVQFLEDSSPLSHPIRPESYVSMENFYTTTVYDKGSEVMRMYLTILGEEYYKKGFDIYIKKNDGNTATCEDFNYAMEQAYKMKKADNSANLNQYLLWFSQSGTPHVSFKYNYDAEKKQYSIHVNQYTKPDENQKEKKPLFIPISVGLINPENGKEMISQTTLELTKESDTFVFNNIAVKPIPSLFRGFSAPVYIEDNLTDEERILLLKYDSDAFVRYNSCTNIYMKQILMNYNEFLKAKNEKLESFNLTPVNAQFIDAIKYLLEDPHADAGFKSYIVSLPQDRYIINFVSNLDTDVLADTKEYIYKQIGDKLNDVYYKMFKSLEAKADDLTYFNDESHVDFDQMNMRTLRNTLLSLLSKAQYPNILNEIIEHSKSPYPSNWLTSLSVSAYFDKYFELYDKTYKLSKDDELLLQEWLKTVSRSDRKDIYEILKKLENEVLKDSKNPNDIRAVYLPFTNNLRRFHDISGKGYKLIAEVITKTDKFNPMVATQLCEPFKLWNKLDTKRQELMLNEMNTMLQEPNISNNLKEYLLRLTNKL
In words: malaria alanyl aminopeptidase activity blockers – biochemical, fluorogenic H-Leu-NHMec substrate, 1536-well (AID 1445). Also noted: species or system Plasmodium falciparum 3D7, 3D7.

A short description of test [2]: HPDE-C7 pancreatic duct cell viability loss – fluorescence, HTS (AID 430). The format is functional, cell-based. Conditions: Homo sapiens.
Test [3] in a line: viability loss of HPDE-C7K cells – cell-based, fluorescence, HTS, primary screen (AID 431). It counts as functional. Conditions: Homo sapiens.
Test [4] has as its target Glyceraldehyde-3-phosphate dehydrogenase (Homo sapiens, UniProt P04406).
Test [5] has as its target T2, Bcl-2-related protein A1 (Mus musculus, UniProt Q07440).
T2 sequence (Q07440 whole entry): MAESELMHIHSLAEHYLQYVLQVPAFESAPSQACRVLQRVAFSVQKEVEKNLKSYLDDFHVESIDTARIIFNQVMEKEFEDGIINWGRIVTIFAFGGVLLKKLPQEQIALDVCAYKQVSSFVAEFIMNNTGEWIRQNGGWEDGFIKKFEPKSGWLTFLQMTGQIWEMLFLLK
Put plainly: small-molecule antagonists of Bfl-1/BH3 interaction – biochemical, TR-FRET, mouse Bfl-1, confirmation (AID 621).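 Note: TR-FRET binding of GST-Bfl-1 to FITC-labelled Bid peptide via terbium antibody.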

Test [6] addresses T2, Bcl-2-related protein A1. Put plainly: Bfl-1 binding inhibitors, SAR follow-up, biochemical, fluorescence polarization (AID 1070).
Test [7] is described as follows: Luminescent dose response cell-based high throughput screening assay for inhibitors of the Janus kinase 2 mutant JAK2V617F. [Related pubchem assays: 1446 (Primary screen.), 1521 (Confirmation assay.), 1486 (Counter screen.)]. The format is functional. (In general: A counterscreen serves to expose hits that act by an unwanted route or on another target.)
A short description of test [8]: NIH-3T3 fibroblast cytotoxicity, dose response, cytotoxicity control, cell-based, fluorescence, Alamar Blue, secondary assay (AID 2327).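 Note: NIH-3T3 mouse fibroblasts cultured with fluconazole at 8 µg/mL.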 It counts as functional.
The nature of test [9]: fluconazole-exposed Candida albicans growth modulators – fluorescence, retest, confirmation (AID 2467). The format is functional, cell-based.
In test [10] the test system is Vero. In words: cells. The format is functional. Conditions: Chlorocebus sabaeus.
The nature of test [11]: luciferase reporter signal suppression in cells – H4 neuroglioma cells, luminescence, dose response (AID 1990). It counts as functional, cell-based.
Test [12] is described as follows: Luminescence Cell-Based Dose Response HTS to Identify Inhibitors of 5'UTR Stem-Loop Driven Prion Protein mRNA Translation in H4 Neuroglioblastoma Cells. [Related pubchem assays: 1827 (Project Summary), 1813 (Primary HTS)]. It counts as functional.
Test [13] can be described thus: alpha-synuclein stem-loop luciferase translation blockers – H4 neuroglioma cells, luminescence, confirmation (AID 1988). It counts as functional, cell-based.
The nature of test [14]: Trypanosoma cruzi growth suppression in host cells – NIH3T3 host cells, beta-gal luminescence, confirmation (AID 2044).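 Note: intracellular parasites grown in NIH/3T3 mouse fibroblasts as host cells; luminescent beta-galactosidase reporter signal from transgenic T. cruzi replicating inside host cells; inhibitors lower the luminescence signal.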 The format is functional, cell-based.
Test [15] can be described thus: NIH3T3 cell viability loss – ATP luminescence, mouse fibroblasts, counter-screen, dose response (AID 2010).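 Note: cells exposed to compound for about 90 hours before reading.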 The format is functional, cell-based.
Test [16] is described as follows: cells.
Test [17] in a line: microbe, parasite or virus in culture. The format is functional. Conditions: Mycobacterium tuberculosis.
Test [18] concerns INS1. In words: INS-1E survival protection against cytokine death – cell-based, luminescence, retest, dose response (AID 449756).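 Note: cell death triggered by IL-1 beta plus TNF-alpha plus IFN-gamma mixture; protective hits raise ATP signal compared with cytokine alone wells.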 It counts as functional. Conditions: Rattus norvegicus.
The target of test [19] is Protein-tyrosine kinase 2-beta (Homo sapiens, UniProt Q14289).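 Note: potency of inhibitors of PYK2 kinase phosphorylation of poly-GT substrate.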
Test [20] deals with Cytochrome P450 2C19 (Homo sapiens, UniProt P33261). Put plainly: Cytochrome panel assay with activity outcomes. Panel member name: p450-cyp2c19 Compounds with AC50 equal or less than 10 uM are considered active. The format is functional. Particulars: read-out: AC50.
The target of test [21] is T3, Cytochrome P450 1A2 (Homo sapiens, UniProt P05177).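 Note: PubChem cytochrome P450 panel assay, CYP1A2 panel member.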
T3 sequence (P05177 whole entry): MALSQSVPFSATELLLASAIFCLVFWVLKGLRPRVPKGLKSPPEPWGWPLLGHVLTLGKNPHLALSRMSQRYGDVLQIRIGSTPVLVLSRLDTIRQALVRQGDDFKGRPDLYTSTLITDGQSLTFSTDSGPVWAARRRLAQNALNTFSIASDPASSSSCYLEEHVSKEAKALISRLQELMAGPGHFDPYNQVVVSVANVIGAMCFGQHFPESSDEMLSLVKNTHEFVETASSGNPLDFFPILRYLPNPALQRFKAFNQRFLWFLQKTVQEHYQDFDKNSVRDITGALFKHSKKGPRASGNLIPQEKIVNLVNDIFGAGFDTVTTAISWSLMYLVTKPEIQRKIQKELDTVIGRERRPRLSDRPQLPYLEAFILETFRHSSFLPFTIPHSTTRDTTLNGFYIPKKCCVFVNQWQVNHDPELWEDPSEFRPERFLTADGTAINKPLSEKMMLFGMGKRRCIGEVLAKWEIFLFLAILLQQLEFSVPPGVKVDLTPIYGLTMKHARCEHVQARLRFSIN

The nature of test [22]: Luminescence Cell-Based Dose Response HTS to Identify Activators of Luciferase Translation or Activity in H4 […] Cells. [Related pubchem assays: 1829 (Project Summary), 1814 (Primary HTS)]. The format is functional.
A short description of test [23]: viability loss in Vero cells – cytotoxicity control for Vif-APOBEC3G degradation inhibitor project, dose response (AID 1117358). The format is functional. Particulars: Vero.
Test [24] in a line: viability of PTEN-deleted HCT116 cells – cell-based, HCT116 PTEN knockout, dose response (AID 1047).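 Note: HCT116 colon tumor cells with PTEN knocked out; cells exposed to compound for 60 hours before readout; potency for loss of cell viability measured by luminescence.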 The format is functional.
The nature of test [25]: viability of HCT116 lacking mutant beta-catenin – cell-based, human colon tumor, dose response (AID 1045).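 Note: HCT116 colon tumor cells with beta catenin knocked out; cells exposed to compound for 60 hours.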 It counts as functional.
Test [26] is described as follows: reduction of Shn3 3'UTR-driven luciferase in osteoblasts – cell-based, Clone20 osteoblasts, firefly luciferase, cherry-picked, dose response (AID 624132).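 Note: firefly luciferase luminescence from reporter carrying the Shn3 3'UTR in osteoblasts.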 The format is functional.
The nature of test [27]: loss of viability in HepG2 cells – cell-based, CellTiter-Glo, cherry-picked, cytotoxicity control for Shn3 inhibitor project, dose response (AID 624134). It counts as functional. In general terms: ATP-based viability assays read luminescence as a measure of living cells.
Test [28] in a line: non-specific 3'UTR reporter inhibition in Clone20-Shn3RL – cell-based, Renilla luciferase, cherry-picked, counter-screen for Shn3 inhibitor project, dose response (AID 624133). The format is functional.
A short description of test [29]: CCR5-tropic HIV-1 fusion blockers – cell-based, CCR5-tropic Env, dose response (AID 2279). It counts as functional.
Test [30] deals with Major prion protein (Homo sapiens, UniProt P04156). It counts as functional, cell-based.
Test [31] can be described thus: cells. This is another data set of the same source.
Test [32] is described as follows: rise of 2N DNA cells, HeLa – IC50, dose response (AID 1117349). It counts as functional, cell-based.
Test [33] can be described thus: rise of 4N DNA cells, HeLa – IC50, dose response (AID 1117351). It counts as functional, cell-based.

As to `COC(=O)c1ccc(O)c(Sc2cc(C(=O)OC)ccc2O)c1`, the IC50 in test [1] was 33.1 µM (active). Also, the EC50 in [2] was 13.6 µM (active); in test [3], > 20 µM (not active).
In the case of `CCOC(=O)CS(=O)(=O)c1nc2c(c(C(F)(F)F)n1)CCc1ccccc1-2`, the concentration for half-maximal inhibition (IC50) in test [4], in test [5] and in [6] was > 100 µM (not active) in each case.
Turning to `Cc1cccc(NC(=O)c2ccc([N+](=O)[O-])o2)c1`, the 50% inhibitory concentration (IC50) in test [7] was 1.18 µM (active). Further, the concentration for a half-maximal effect (EC50) in test [8] was 18 µM (active); in test [9], 1.42 µM (active). In addition, the CC50 in test [10] is 10 µM (active).
On to `CC(C)c1ccc(-n2c(-c3ccccc3)c[n+]3c2CCc2ccccc2-3)cc1`, for which the EC50 is 9.52 µM (active) in test [11]; > 120 µM (not active) in test [12]; 11.7 µM (active) in test [13]; < 0.1 µM (active) in test [14]; > 60 µM (not active) in [15]; 0.041 µM (active) in test [16].
As for `Fc1ccc(C[n+]2c(-c3ccccc3)cc(-c3ccccc3)cc2-c2ccccc2)cc1.[O-][Cl+3]([O-])([O-])[O-]`, the 50% effective concentration (EC50) was 11.2 µM (active) in [11]; 35.3 µM (active) in [12]; > 120 µM (not active) in test [13]; < 0.1 µM (active) in test [14]; > 60 µM (not active) in test [15]; 0.053 µM (active) in test [16]. The CC50 in test [17] was > 40 µM (active). Moreover, the concentration at half-maximal activity (AC50) in test [18] is 2.98 µM (active).
With `CC(C)(C)C(=O)Nc1nc2c(s1)COc1ccccc1-2`, the IC50 in test [19] was > 69.5 µM (not active).
For the compound `COc1ccc(N2CCc3c(C)nc4c(OC)cc(OC)cc4c32)c(OC)c1`, the IC50 in [7] was 1.87 µM (active). In addition, the EC50 in test [14] was 0.839 µM (active); in test [15] it was > 60 µM (not active). Besides, the results for the AC50 in test [20] and in test [21] were 28.2 µM (inconclusive) and 22.4 µM (inconclusive), respectively.
In the case of `Cn1ncc2c(Nc3ccc4ccccc4c3)ncnc21`, in test [22], the EC50 is 1.89 µM (active). Moreover, the CC50 in test [23] was > 40 µM (active).
Regarding `Cc1cc(C)c(O)c(-c2cc(C(=O)Nc3ccc(S(=O)(=O)N4CCOCC4)cc3)[nH]n2)c1`, the EC50 in test [2] was 9.42 µM (active); in test [3], 9.32 µM (active); in [24], 8.35 µM (active); in [25], 10 µM (active). Moreover, the AC50 in test [26] is 5.48 µM (active); in test [27], 19.9 µM (active); in test [28], 7.37 µM (active).
Turning to `CCOc1ccc(CCNC(=O)c2ccc3c(=O)[nH]c4c(C(=O)NC(C)C)sc(=S)n4c3c2)cc1`, the IC50 in test [29] is 30.1 µM (active).
As for `Cc1cc(NC(=O)CSc2nc(C(C)C)nc3ccccc23)no1`, the IC50 in [19] is > 69.5 µM (not active); in [30] it was 0.936 µM (active); in test [31], > 138 µM (inactive).
Regarding `CCCN(CCC)C(=O)C(CCC(=O)OCCCN1CCN(CCOC(=O)Cc2c(C)n(C(=O)c3ccc(Cl)cc3)c3ccc(OC)cc23)CC1)NC(=O)c1ccccc1` (stereo not given) [PROGLUMETACIN], the IC50 in [32] and in test [33] was > 10 µM (inactive) each time.

The record behind these values is ChEMBL document CHEMBL1201862, “PubChem BioAssay data set” (2004).
